Tests used:
Type in all cases: cell-based, human
[1] = test system: HuH-7 cells; assay: Growth inhibitory effect on cancer cells (WST assay), Example 2.3; details: for IC50: HuH-7 cells, WST assay, concentrations 0-50 μM, control 0.1% DMSO; for IC50 compared with IC-2: comparison with IC-2
Description: HuH-7 cells, a human liver cancer cell line, were cultured on 10-cm cell culture dishes (TPP Techno Plastic Products AG, Trasadingen, Switzerland) by using DMEM under conditions at 5% CO2, 37° C., and 100% humidity. When the cells were 70 to 90% confluent, 200 μL of 0.25% Trypsin/1 mM EDTA solution, which had been prepared by diluting the stock solution 10-fold with PBS (−), was added to detach the cells. Then, the cells were centrifuged at 1000 rpm for 3 min at room temperature. The cells recovered were subcultured at a 1:4 split ratio.
First, 70 to 90% confluent HuH-7 cells were harvested and seeded (n=3) at 5×10^3 cells/well of a 96-well plate (TPP). After 24 h, each compound was added to the cells and the mixture was cultured at 37° C. The concentrations of each compound were 0, 10, 20, 30, 40, and 50 μM. For IC-2-506-1, however, the concentrations used were 0, 10, 20, 25, 30, 40, and 50 μM. Each control sample (0 μM) used was 0.1% DMSO, a solvent for each compound.
Next, 0, 24, 48, and 96 h after the compound treatment, 100 μIL of DMEM-diluted 10% Cell Counting Kit-8 (DOJINDO LABORATORIES, Kumamoto) was added. The mixture was incubated at 37° C. for 60 min and its absorbance (at a measurement wavelength of 450 nm/control wavelength of 600 nm) was measured by using a Sunrise Rainbow RC (Tecan Group Ltd., Mannedorf, Switzerland). Absorbance for the cells alone was calculated by subtracting, from the reading obtained, absorbance for 10% Cell Counting Kit-8 alone.
The “*” in figures indicates a significant difference of p<0.05 between 0.1% DMSO and each compound; and the “**” indicates a significant difference of p<0.01 (the same applies to all the figures in Examples).

[2] = test system: Wnt/β-catenin signaling; assay: Inhibitory effect on Wnt/β-catenin signaling in liver cancer cells (HuH7-TCF4 luciferase); details: concentration equal to or lower than that of IC-2
Description: A pTCF4-CMVpro-GL4.20 plasmid vector, which had been constructed by inserting 3 copies of TCF4 motifs (CCT TTG ATC) upstream of a CMV promoter into a multiple cloning site of pGL4.20 (Promega Corp., Fitchburg, Wis.), was linearized and stably transfected into the HuH-7 cells. The resulting stable cells (HuH7-TCF4 cells) and HuH-7 cells were likewise cultured.
While each compound was added at concentrations where the growth of HuH-7 cells was reduced to about 50% or less, Wnt/β-catenin signaling activity was measured. The concentrations of the respective compounds were as described in FIG. 40. Control samples used were 0.1% DMSO, a solvent for each compound, and 0.5 μM 5-FU.
First, 70 to 90% confluent HuH7-TCF4 cells were harvested and seeded (n=3) at 5.0×10^4 cells/well of a 24-well plate (TPP). After 24 h, each compound was added to the cells and the mixture was cultured at 37° C.
At 48 h after the compound treatment, the culture medium was discarded, and 100 μL of room temperature 5×Passive Lysis Buffer (PLB) (Promega Corp., Fitchburg, Wis.), which had been diluted 5-fold with MilliQ water, was added to each well. Next, the plate was shaken at room temperature for 15 min and was then frozen at −30° C. overnight. A Luciferase Assay Substrate was diluted with 10 mL of room temperature Luciferase Assay Buffer II to prepare Luciferase Assay Reagent II (LARII) (Promega). The frozen PLB lysate samples were thawed and permeabilized for 15 min. Then, 10 μL aliquots were added to wells of a 96-well white plate (Corning Inc., Corning, N.Y.). While 50 μL aliquots of LARII were each added to each well, luminescence was quantified by using a 1420 multi-label counter ARVO MX (PerkinElmer Singapore Pte Ltd., Singapore) to determine firefly luciferase activity. Note that a significant difference was evaluated by using (two-tailed) Student's t-test. The “*” in figures indicates a significant difference of p<0.05 between 0.1% DMSO and each compound; and the “**” indicates a significant difference of p<0.01 (the same applies to all the figures in Examples).

[3] = test system: LX-2 cells; assay: Anti-fibrosis effect, summary statements on Example 3 (marker not specified); details: for anti-fibrosis effect compared with IC-2, equal or higher concentration: concentration equal to or higher than that of IC-2
Text: α-Smooth muscle actin (α-SMA), a fibrosis marker, was used as an indicator, and RNA was collected from LX-2 cells treated with each low-molecular-weight compound. Next, an inhibitory effect on fibrosis was examined by real-time RT-PCR.
In addition, instead of α-SMA, another fibrosis marker collagen, type I, alpha 1 (COL1A1) was used as an indicator, and substantially the same protocol was repeated. The concentrations of each compound used were as described in FIG. 34. Each control sample used was 0.1% DMSO, a solvent for each compound. Here, COL1A1 primers used were 5′-CCT CCA GGG CTC CAA CGA G-3′ and 5′-TCAATCACTGTCTTGCCCCA-3′. The annealing was performed at 58° C. for 5 sec. The measurement results were obtained by dividing the calculated value for the COL1A1 gene by the calculated value for the GAPDH gene.

[4] = test system: Wnt/β-catenin signaling; assay: Inhibitory effect on Wnt/β-catenin signaling in mesenchymal stem cells (E7-TCF4 luciferase); details: for inhibitory effect on Wnt/β-catenin signaling pathway in mesenchymal stem cells compared with IC-2: concentration equal to or lower than that of IC-2; for inhibitory effect on Wnt/β-catenin signaling in mesenchymal stem cells: E7-TCF4 cells, day 8 after compound addition, compared with control 0.1% DMSO
Description: A pTCF4-CMVpro-GL4.20 plasmid vector, having 3 copies of TCF4 motifs (CCT TTG ATC) upstream of aCMV promoter in a multiple cloning site of pGL4.20 (Promega Corp., Fitchburg, Wis.), was linearized and stably transfected into UE7T-13 cells to prepare E7-TCF4 cells. Also, a pCMVpro-GL4.20 plasmid vector, having a CMV promoter in a multiple cloning site of pGL4.20, was linearized and stably transfected into UE7T-13 cells. The resulting stable cells (E7-CMV cells) were cultured, like UE7T-13 cells, in 10% FBS/DMEM containing 0.25 μg/mL puromycin.
UE7T-13 cells were used to measure Wnt/β-catenin signaling activity. The concentrations of the respective compounds were as described in FIG. 42. Each control sample used was 0.1% DMSO, a solvent for each compound.
First, 70 to 90% confluent E7-TCF4 cells and E7-CMV cells were harvested and seeded (n=3) at 1.6758×10^4 cells/well of a 24-well plate (9.0×10^3 cells/cm^2). One day after that, each compound was added to the cells and the mixture was cultured at 37° C. Day 4 after the compound addition, the culture medium was changed.
At day 1, 4, or 8 after the compound treatment, the culture medium was discarded, and 100 μL of room temperature 5×Passive Lysis Buffer (PLB), which had been diluted 5-fold with MilliQ water, was added to each well. Next, the plate was shaken at room temperature for 15 min and was then frozen at −30° C. overnight. A Luciferase Assay Substrate was diluted with 10 mL of room temperature Luciferase Assay Buffer II to prepare Luciferase Assay Reagent II (LARII). The frozen PLB lysate samples were thawed and permeabilized for 15 min. Then, 10 μL aliquots were added to wells of a 96-well white plate. While 50 μL aliquots of LARII were each added to each well, luminescence was quantified by using a 1420 multi-label counter ARVO MX to determine firefly luciferase activity.

[5] = test system: Wnt/β-catenin signaling; assay: Inhibitory effect on Wnt/β-catenin signaling in liver stellate cells (LX-2, TCF4 luciferase); details: concentration equal to or lower than that of IC-2
Description: While each compound was added at concentrations where the cell growth of fibrosis-causing liver stellate LX-2 cells was reduced to about 50 to 80%, Wnt/β-catenin signaling activity was measured. […] The concentrations of the respective compounds were as described in FIG. 41. Each control sample used was 0.1% DMSO, a solvent for each compound.
LX-2 cells, which were cultured and maintained by using 10% FBS/DMEM, were harvested and seeded (n=3) in 1% FBS/DMEM at 4.0×10^4 cells per well of a 24-well plate. Next, 25 μL of Opti-MEM (Gibco, Life Technologies Corp., Carlsbad, Calif.) containing 50 ng of pTCF4-CMVpro-GL4.20, having 3 copies of TCF motifs (CCT TTG ATC) upstream of a CMV promoter in a multiple cloning site of pGL4.20 (Promega), and 5 ng of pRL-CMV Vector (Promega) and 25 μL of Opti-MEM containing 0.4 μL of Lipofectamine 2000 (Invitrogen, Life Technologies Corp., Carlsbad, Calif.) were mixed and incubated at room temperature for 20 min. At 20 h after the cell seeding, the mixture was added to each well, so that both reporter plasmids were transiently transfected into the cells. After additional 4 h, 2.5 ng/mL of TGF-β and each compound were added to the cells and the mixture was cultured at 37° C.
At 24 and 48 h after the compound treatment, the culture medium was discarded, and 100 μL of room temperature 5×Passive Lysis Buffer (PLB), which had been diluted 5-fold with MilliQ water, was added to each well. Next, the plate was shaken at room temperature for 15 min and was then frozen at −30° C. overnight. A Luciferase Assay Substrate was diluted with 10 mL of room temperature Luciferase Assay Buffer II to prepare Luciferase Assay Reagent II (LARII). Then, 1 μL of Stop&Glo Substrate was diluted with 49 μL of room temperature Stop&Glo Buffer to prepare Stop&Glo (Promega) in a quantity enough for samples.
The frozen PLB lysate samples were thawed and permeabilized for 15 min. After that, 50 μl aliquots of LARII were dispensed into 3.5 mL test tubes (Sarstedt, AG & Co., Numbrecht, Germany) and 10 μL of each frozen PLB lysate sample was added and mixed well. Subsequently, luminescence was quantified by using a MiniLumat LB 9506 (Berthold Technologies GmbH & Co, Bad Wildbad, Germany) to measure firefly luciferase activity. After the measurement, 50 μL of Stop&Glo was added and mixed well and luminescence was then quantified by using the MiniLumat LB 9506 to determine Renilla luciferase activity. The measurement results were obtained by dividing the firefly luciferase activity by the Renilla luciferase activity.

## COCOc1ccc(CNC(=O)N2CCC(=O)N3C(Cc4ccccc4)C(=O)N(Cc4cccc5ccccc45)CC23)cc1 (stereo not drawn) [IC-2-OMOM]
[1]
  IC50: 20.3 µM
  IC50 compared with IC-2: lower IC50 than IC-2
[2]
  inhibitory effect on Wnt/β-catenin signaling pathway in liver cancer cells compared with IC-2: more potent inhibitory effect

## O=C1C(Cc2ccccc2)N2C(=O)CCN(C(=O)NCc3ccccc3)C2CN1Cc1ccc(Cl)cc1 (stereo not drawn) [IC-2-Ar—Cl]
[1]
  IC50: 45.1 µM
[3]
  anti-fibrosis effect compared with IC-2, equal or higher concentration: more potent anti-fibrosis effect
[2]
  inhibitory effect on Wnt/β-catenin signaling pathway in liver cancer cells compared with IC-2: more potent inhibitory effect
[4]
  inhibitory effect on Wnt/β-catenin signaling pathway in mesenchymal stem cells compared with IC-2: more potent inhibitory effect

## COc1ccc(CN2CC3N(C(=O)NCc4ccccc4)CCC(=O)N3C(Cc3ccccc3)C2=O)cc1 (stereo not drawn) [IC-2-Ar-OMe]
[4]
  inhibitory effect on Wnt/β-catenin signaling in mesenchymal stem cells: all the compounds except for IC-2-Ar-OMe, 9b, and 7c-NT exhibited a significant inhibitory effect

## O=C1C(Cc2ccccc2)N2C(=O)CCN(C(=O)NCc3ccccc3)C2CN1Cc1cccc(Cl)c1Cl (stereo not drawn) [IC-2-506-1]
[1]
  IC50: 14.1 µM
  IC50 compared with IC-2: lower IC50 than IC-2
[1]; at a concentration lower than that of IC-2
  anti-tumor effect compared with IC-2: more potent anti-tumor effect
[3]
  anti-fibrosis effect compared with IC-2, equal or higher concentration: more potent anti-fibrosis effect
[2]
  inhibitory effect on Wnt/β-catenin signaling pathway in liver cancer cells compared with IC-2: more potent inhibitory effect
[5]
  inhibitory effect on Wnt/β-catenin signaling pathway in liver stellate cells compared with IC-2: more potent inhibitory effect

## O=C1C(Cc2ccccc2)N2C(=O)CCN(C(=O)NCc3ccc(O)cc3)C2CN1Cc1cccc2ccccc12 (stereo not drawn) [IC-2-OH]
[1]
  IC50: 33.5 µM
[3]
  anti-fibrosis effect compared with IC-2, equal or higher concentration: more potent anti-fibrosis effect
[2]
  inhibitory effect on Wnt/β-catenin signaling pathway in liver cancer cells compared with IC-2: more potent inhibitory effect

## O=C1C(Cc2ccccc2)N2C(=O)CCN(c3ccccc3[N+](=O)[O-])C2CN1Cc1cccc2ccccc12 (stereo not drawn) [Compound 7c-NT]
[1]
  IC50: 36.1 µM
[5]
  inhibitory effect on Wnt/β-catenin signaling pathway in liver stellate cells compared with IC-2: more potent inhibitory effect
[4]
  inhibitory effect on Wnt/β-catenin signaling in mesenchymal stem cells: all the compounds except for IC-2-Ar-OMe, 9b, and 7c-NT exhibited a significant inhibitory effect

## COc1ccc(CNC(=O)N2CCC(=O)N3C(Cc4ccccc4)C(=O)N(Cc4cccc5ccccc45)CC23)cc1 (stereo not drawn) [IC-2-OMe]
[1]
  IC50: 34.9 µM
[2]
  inhibitory effect on Wnt/β-catenin signaling pathway in liver cancer cells compared with IC-2: more potent inhibitory effect

## O=C1C(Cc2ccccc2)N2C(=O)CCN(C(=O)NCc3ccccc3)C2CN1Cc1ccc(Cl)c(Cl)c1 (stereo not drawn) [IC-2-506-3]
[1]
  IC50: 18.3 µM
  IC50 compared with IC-2: lower IC50 than IC-2
[3]; concentration even lower than that of IC-2
  anti-fibrosis effect compared with IC-2, lower concentration: more potent anti-fibrosis effect
[5]
  inhibitory effect on Wnt/β-catenin signaling pathway in liver stellate cells compared with IC-2: more potent inhibitory effect

## O=C1C(Cc2ccccc2)N2C(=O)CCN(C(=O)NCc3ccccc3)C2CN1Cc1ccc([N+](=O)[O-])cc1 (stereo not drawn) [IC-2-Ar—NO2]
[4]
  inhibitory effect on Wnt/β-catenin signaling pathway in mesenchymal stem cells compared with IC-2: more potent inhibitory effect

Reference: patent publication US10597398B2, “Suppression and regeneration promoting effect of low molecular weight compound on cancer and fibrosis” (NATIONAL UNIVERSITY CORPORATION TOTTORI UNIVERSITY, priority 2015, dated 2020)
